Laboratory results reported in patent publication US6630124B1, “Combination therapy with VIP antagonist” (Ramot-University Authority for Applied Research and …, priority 1998, dated 2003).
Where a SMILES comes first, the peptide text is derived from it. [ ]: non-standard residue; d: D form. The star is where a group is joined. Stearoyl = CCCCCCCCCCCCCCCCCC(=O)*; Nle = CCCC[C@H](N)C(=O)O

How the values were obtained:
Format in all cases: cell-based
[1] = test system: HT-29 human colon cancer; assay: MTS cell proliferation assay, SNH and chemotherapy; conditions: HT-29, 4 hour treatment with SNH followed by a 24 hour treatment (FIG. 11)
Method: NCI-H727 and LNCaP were grown in RPMI 1640 medium supplemented with 10% heat inactivated FCS, L-glutamine and antibiotics. HT-29 and CT-26 were grown in DMEM medium supplemented with 10% heat-inactivated FCS (fetal calf serum), L-glutamine and antibiotics. The cells were cultured in 5% CO2/95% air at […] and used during their exponential growth phase. Routinely, the cells which are adherent, were split when a subconfluent monolayer was formed. In different experiments, various concentration of FCS were used. For growth inhibition experiments, subconfluent adherent cells were washed with PBS and treated with trypsin/versene. The cells were pelleted and resuspended in medium to a final concentration of 75,000 cells/mL for NCI-H727. 50,000 cells/mL for LNCaP and HT-29 and 25000 cells/mL for CT-26. These different concentrations were used in order to avoid confluence in the wells at the end of the experiment and correspond to the different doubling times of the cell lines. […] On day 4, viable cell number was determined by a modified MTT assay i.e., MTS non-radioactive cell proliferation assay (Promega). […] Results were finally expressed as percentage of the control, which was obtained from the samples with no drug treatment. Dose-response curves were plotted using a Sigma-Plot software and statistically analyzed using Student test. […] On day 4 the number of viable cells was determined by MTS assay.

[2] = test system: MCF-7 cells; assay: MTT colorimetric assay, breast cancer cells (Example 6); conditions: compared with VIPhyb
Method: The ability of VIP receptor antagonists to alter the growth of breast cancer cells was investigated in vitro using the MTT colorimetric. The semiautomated MTT assay measures reduction of a tetrazolium compound by tumor cells to formazan. The optical density at 570 nm was determined for 8 wells at each inhibitor concentration. Seeding densities were 5×10^4 cells/well and cells were grown in 96 well plates for 5 days.

[3] = test system: glioblastoma cell lines; assay: MTT assay, glioblastoma proliferation
Description: The effects of VIP receptor antagonists on glioblastoma cell lines were investigated.

Question: `CCCCCCCCCCCCCCCCCC(=O)N[C@@H](CCCCN)C(=O)N1CCC[C@H]1C(=O)N[C@@H](CCCNC(=N)N)C(=O)N[C@@H](CCCNC(=N)N)C(=O)N1CCC[C@H]1C(=O)N[C@@H](Cc1ccc(O)cc1)C(=O)N[C@H](C(=O)N[C@@H](CC(=O)O)C(=O)N[C@@H](CC(N)=O)C(=O)N[C@@H](Cc1ccc(O)cc1)C(=O)N[C@H](C(=O)N[C@@H](CCCNC(=N)N)C(=O)N[C@@H](CC(C)C)C(=O)N[C@@H](CCCNC(=N)N)C(=O)N[C@@H](CCCCN)C(=O)N[C@@H](CCC(N)=O)C(=O)N[C@@H](CCCC)C(=O)N[C@@H](C)C(=O)N[C@H](C(=O)N[C@@H](CCCCN)C(=O)N[C@@H](CCCCN)C(=O)N[C@@H](Cc1ccc(O)cc1)C(=O)N[C@@H](CC(C)C)C(=O)N[C@@H](CC(N)=O)C(=O)N[C@@H](CO)C(=O)N[C@H](C(=O)N[C@@H](CC(C)C)C(=O)N[C@@H](CC(N)=O)C(N)=O)[C@@H](C)CC)C(C)C)[C@@H](C)O)[C@@H](C)O` [SNH] (Stearoyl-KPRRPYTDNYTRLRKQ[Nle]AVKKYLNSILN-NH2) was tested. Which “effect of the combination with a different schedule” value [1] did it give?
Answer: also effective

Question: And the “relative potency as inhibitor of proliferation” value [2]?
Answer: more potent inhibitor than VIPhyb

Question: What about the “effect on basal proliferation” value ([3]; 1 μM) of the same compound?
Answer: little effect

Question: And the “interaction with Taxol to inhibit growth” value ([3]; 1 μM (SN)VIPhybrid with Taxol)?
Answer: synergistically interacted
